Laboratory results published in US20220289727A1, “ENZYME INHIBITORS” (KALVISTA PHARMACEUTICALS LIMITED, priority 2019, published 2022).

molecular target: T1, Human Factor XIIa (Homo sapiens, UniProt P00748); assay: Determination of FXIIa inhibitory activity in vitro (fluorogenic substrate H-DPro-Phe-Arg-AFC); type: biochemical; conditions: 25° C., residual enzyme activity (initial rate)
T1 construct: Human Factor XIIa (Enzyme Research Laboratories) was incubated; purchased Enzyme Research Laboratories
T1 sequence (P00748 373-615 limits assumed): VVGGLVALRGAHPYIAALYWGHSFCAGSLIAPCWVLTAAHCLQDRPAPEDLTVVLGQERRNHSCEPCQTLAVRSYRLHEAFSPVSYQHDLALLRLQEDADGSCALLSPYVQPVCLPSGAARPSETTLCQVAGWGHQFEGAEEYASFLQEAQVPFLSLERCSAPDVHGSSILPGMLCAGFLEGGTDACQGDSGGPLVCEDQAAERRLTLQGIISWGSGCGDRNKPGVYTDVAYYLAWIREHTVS
T1 sequence (P00748 20-372 partner limits assumed): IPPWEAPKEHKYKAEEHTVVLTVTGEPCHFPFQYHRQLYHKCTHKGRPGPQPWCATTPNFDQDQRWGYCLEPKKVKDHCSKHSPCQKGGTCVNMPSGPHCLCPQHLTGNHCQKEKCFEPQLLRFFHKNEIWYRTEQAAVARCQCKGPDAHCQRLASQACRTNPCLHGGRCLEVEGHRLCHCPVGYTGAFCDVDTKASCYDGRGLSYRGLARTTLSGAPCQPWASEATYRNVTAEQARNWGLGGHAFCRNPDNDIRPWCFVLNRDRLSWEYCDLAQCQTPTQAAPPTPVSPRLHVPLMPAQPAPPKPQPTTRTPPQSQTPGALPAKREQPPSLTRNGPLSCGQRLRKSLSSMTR

SMILES | IC50
CN(C)Cc1sc(C(=O)NCc2ccc3c(N)nccc3c2)cc1Cl [Example 2.01] | 10 to 40 µM
Nc1nccc2cc(CNC(=O)c3cc(Cl)c(CNCc4ccccc4)s3)ccc12 [Example 2.02] | 10 to 40 µM
Nc1nccc2cc(CNC(=O)c3cc(Cl)c(CNc4ccccc4)s3)ccc12 [Example 2.03] | 10 to 40 µM
Nc1nccc2cc(CNC(=O)c3cc(Cl)c(CNCCN4CCCCC4)s3)ccc12 [Example 2.04] | 3 to 10 µM
COc1ccc(CNCc2sc(C(=O)NCc3ccc4c(N)nccc4c3)cc2Cl)cc1 [Example 2.05] | 10 to 40 µM
COc1cccc(CNCc2sc(C(=O)NCc3ccc4c(N)nccc4c3)cc2Cl)c1 [Example 2.06] | 10 to 40 µM
COc1ccccc1CNCc1sc(C(=O)NCc2ccc3c(N)nccc3c2)cc1Cl [Example 2.07] | 10 to 40 µM
CN(C)c1ccccc1CNCc1sc(C(=O)NCc2ccc3c(N)nccc3c2)cc1Cl [Example 2.08] | 10 to 40 µM
COCCNCc1sc(C(=O)NCc2ccc3c(N)nccc3c2)cc1Cl [Example 2.09] | 10 to 40 µM
Nc1nccc2cc(CNC(=O)c3cc(Cl)c(CNCC4CCOCC4)s3)ccc12 [Example 2.10] | 10 to 40 µM
CS(=O)(=O)c1ccc(CNCc2sc(C(=O)NCc3ccc4c(N)nccc4c3)cc2Cl)cc1 [Example 2.11, N-[(1-Aminoisoquinolin-6-yl)methyl]-4-chloro-5-({[(4-methanesulfonylphenyl)methyl]amino}methyl)thiophene-2-carboxamide] | 3 to 10 µM
CS(=O)(=O)c1cccc(CNCc2sc(C(=O)NCc3ccc4c(N)nccc4c3)cc2Cl)c1 [Example 2.12] | 3 to 10 µM
CS(=O)(=O)c1ccccc1CNCc1sc(C(=O)NCc2ccc3c(N)nccc3c2)cc1Cl [Example 2.13] | 10 to 40 µM
N#Cc1cccc(CNCc2sc(C(=O)NCc3ccc4c(N)nccc4c3)cc2Cl)c1 [Example 2.15] | 10 to 40 µM
CN(C)CCNCc1sc(C(=O)NCc2ccc3c(N)nccc3c2)cc1Cl [Example 2.16] | 3 to 10 µM
Nc1nccc2cc(CNC(=O)c3cc(Cl)c(CNC4CCOCC4)s3)ccc12 [Example 2.17] | 10 to 40 µM
Nc1nccc2cc(CNC(=O)c3cc(Cl)c(CNCCN4CCOCC4)s3)ccc12 [Example 2.18] | 10 to 40 µM
CN1CCN(CCNCc2sc(C(=O)NCc3ccc4c(N)nccc4c3)cc2Cl)CC1 [Example 2.19] | 3 to 10 µM
CN1CCC(CNCc2sc(C(=O)NCc3ccc4c(N)nccc4c3)cc2Cl)CC1 [Example 2.20] | 3 to 10 µM
Nc1nccc2cc(CNC(=O)c3cc(Cl)c(CNCCOc4ccccc4)s3)ccc12 [Example 2.21] | 10 to 40 µM

SMILES | IC50
Nc1nccc2cc(CNC(=O)c3cc(Cl)c(CNCCCOc4ccccc4)s3)ccc12 [Example 2.22] | 10 to 40 µM
Nc1nccc2cc(CNC(=O)c3cc(Cl)c(CNCCn4ccnc4)s3)ccc12 [Example 2.23] | 10 to 40 µM
CC(=O)N1CCN(CCNCc2sc(C(=O)NCc3ccc4c(N)nccc4c3)cc2Cl)CC1 [Example 2.24] | 10 to 40 µM
Nc1nccc2cc(CNC(=O)c3cc(Cl)c(CNCCN4CCS(=O)(=O)CC4)s3)ccc12 [Example 2.25] | 10 to 40 µM
CC(C)CCNCc1sc(C(=O)NCc2ccc3c(N)nccc3c2)cc1Cl [Example 2.26] | 10 to 40 µM
CC(=O)NCCNCc1sc(C(=O)NCc2ccc3c(N)nccc3c2)cc1Cl [Example 2.27] | 10 to 40 µM
Nc1nccc2cc(CNC(=O)c3cc(Cl)c(CNCc4ccc5c(c4)OCO5)s3)ccc12 [Example 2.28] | 10 to 40 µM
CN1CCCc2cc(CNCc3sc(C(=O)NCc4ccc5c(N)nccc5c4)cc3Cl)ccc21 [Example 2.29] | 10 to 40 µM
Nc1nccc2cc(CNC(=O)c3cc(Cl)c(CNCc4ccccn4)s3)ccc12 [Example 2.30] | 10 to 40 µM
Nc1nccc2cc(CNC(=O)c3cc(Cl)c(CNCc4ccncc4)s3)ccc12 [Example 2.31] | 3 to 10 µM
Nc1nccc2cc(CNC(=O)c3cc(Cl)c(CNCc4cccnc4)s3)ccc12 [Example 2.32] | 3 to 10 µM
CN(C)CCCNCc1sc(C(=O)NCc2ccc3c(N)nccc3c2)cc1Cl [Example 2.33] | 3 to 10 µM
CC(C)N1CCN(CCCNCc2sc(C(=O)NCc3ccc4c(N)nccc4c3)cc2Cl)CC1 [Example 2.34] | 3 to 10 µM
CN(C)CCOc1ccc(CNCc2sc(C(=O)NCc3ccc4c(N)nccc4c3)cc2Cl)cc1 [Example 2.35] | 3 to 10 µM
CN1CCN(CCCNCc2sc(C(=O)NCc3ccc4c(N)nccc4c3)cc2Cl)CC1 [Example 2.37] | 3 to 10 µM
Nc1nccc2cc(CNC(=O)c3cc(Cl)c(CNCCN4CCCC4=O)s3)ccc12 [Example 2.38] | 10 to 40 µM
CN1CCN(c2ccccc2CNCc2sc(C(=O)NCc3ccc4c(N)nccc4c3)cc2Cl)CC1 [Example 2.39] | 10 to 40 µM
Nc1nccc2cc(CNC(=O)c3cc(Cl)c(CNCC4CCN(Cc5ccccc5)CC4)s3)ccc12 [Example 2.40] | 3 to 10 µM
Nc1nccc2cc(CNC(=O)c3cc(Cl)c(CNCc4ccc(N5CCCCC5=O)cc4)s3)ccc12 [Example 2.41] | 10 to 40 µM
Nc1nccc2cc(CNC(=O)c3cc(Cl)c(CNCc4cccc(N5CCCC5=O)c4)s3)ccc12 [Example 2.42] | 10 to 40 µM

SMILES | IC50
Nc1nccc2cc(CNC(=O)c3cc(Cl)c(CNCC(=O)NC4CCCC4)s3)ccc12 [Example 2.43] | 10 to 40 µM
CN(Cc1sc(C(=O)NCc2ccc3c(N)nccc3c2)cc1Cl)CC1CCN(c2ccncc2)CC1 [Example 2.44] | 3 to 10 µM
CN(C)CCCOc1cccc(CN(C)Cc2sc(C(=O)NCc3ccc4c(N)nccc4c3)cc2Cl)c1 [Example 2.45] | 3 to 10 µM
CN(Cc1sc(C(=O)NCc2ccc3c(N)nccc3c2)cc1Cl)C1CCOCC1 [Example 2.46] | 10 to 40 µM
CN1CCC(N(C)Cc2sc(C(=O)NCc3ccc4c(N)nccc4c3)cc2Cl)CC1 [Example 2.47] | 10 to 40 µM
COc1ccc(NCc2sc(C(=O)NCc3ccc4c(N)nccc4c3)cc2Cl)cc1 [Example 2.48] | 10 to 40 µM
CS(=O)(=O)c1ccc(NCc2sc(C(=O)NCc3ccc4c(N)nccc4c3)cc2Cl)cc1 [Example 2.49] | 3 to 10 µM
N#Cc1ccc(CNCc2sc(C(=O)NCc3ccc4c(N)nccc4c3)cc2Cl)cc1 [Example 2.50] | 10 to 40 µM
CC(=O)NCCCNCc1sc(C(=O)NCc2ccc3c(N)nccc3c2)cc1Cl [Example 2.51] | 10 to 40 µM
CN(C)CCCOc1cccc(CNCc2sc(C(=O)NCc3ccc4c(N)nccc4c3)cc2Cl)c1 [Example 2.52] | 3 to 10 µM
CN1C(C)(C)CC(NCc2sc(C(=O)NCc3ccc4c(N)nccc4c3)cc2Cl)CC1(C)C [Example 2.53] | 3 to 10 µM
Nc1nccc2cc(CNC(=O)c3cc(Cl)c(CNCCn4cncn4)s3)ccc12 [Example 2.54] | 3 to 10 µM
CC(=O)Nc1cccc(NCc2sc(C(=O)NCc3ccc4c(N)nccc4c3)cc2Cl)c1 [Example 2.55] | 10 to 40 µM
CC(C)N(CCNCc1sc(C(=O)NCc2ccc3c(N)nccc3c2)cc1Cl)C(C)C [Example 2.56] | 3 to 10 µM
Nc1nccc2cc(CNC(=O)c3cc(Cl)c(CNCc4ccc(CN5CCCC5=O)cc4)s3)ccc12 [Example 2.57] | 3 to 10 µM
Nc1nccc2cc(CNC(=O)c3cc(Cl)c(CN4CCN(Cc5cccnc5)CC4)s3)ccc12 [Example 5.01] | 10 to 40 µM
CN1CCCN(Cc2sc(C(=O)NCc3ccc4c(N)nccc4c3)cc2Cl)CC1 [Example 5.02] | 3 to 10 µM
Nc1nccc2cc(CNC(=O)c3cc(Cl)c(CN4CCOCC4)s3)ccc12 [Example 5.03] | 10 to 40 µM
